Source: the supplement of paper PMC10307832

Tests used:
Test in all cases: relative viability (nuclei count vs DMSO), 5 days (fraction); higher = more cells survive
Motesanib + Navitoclax = compound: CC1(C)CNc2cc(NC(=O)c3cccnc3NCc3ccncc3)ccc21 [Motesanib] + CC1(C)CCC(c2ccc(Cl)cc2)=C(CN2CCN(c3ccc(C(=O)NS(=O)(=O)c4ccc(N[C@H](CCN5CCOCC5)CSc5ccccc5)c(S(=O)(=O)C(F)(F)F)c4)cc3)CC2)C1 [Navitoclax] (partner 0.5 µM)
Summary of the method: (§1)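 Values are medians from duplicate plates. Each reflects relative viability, defined as the nuclei count of treated wells over that of vehicle wells. Lung cancer cell lines in 1536-well plates were pin-tool dosed one day after seeding with one drug alone or with a fixed anchor-drug dose plus five library-drug doses (not always all listed) in √10 steps, then fixed, stained and imaged at 4× after 5 days.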

Motesanib + Palbociclib = compound: CC1(C)CNc2cc(NC(=O)c3cccnc3NCc3ccncc3)ccc21 [Motesanib] + CC(=O)c1c(C)c2cnc(Nc3ccc(N4CCNCC4)cn3)nc2n(C2CCCC2)c1=O [Palbociclib] (partner 0.5 µM)
Summary of the method: as §1

Motesanib + Linsitinib = compound: CC1(C)CNc2cc(NC(=O)c3cccnc3NCc3ccncc3)ccc21 [Motesanib] + C[C@]1(O)C[C@@H](c2nc(-c3ccc4ccc(-c5ccccc5)nc4c3)c3c(N)nccn32)C1 [Linsitinib] (partner 1 µM)
Summary of the method: as §1

Motesanib + Trametinib = compound: CC1(C)CNc2cc(NC(=O)c3cccnc3NCc3ccncc3)ccc21 [Motesanib] + CC(=O)Nc1cccc(-n2c(=O)n(C3CC3)c(=O)c3c(Nc4ccc(I)cc4F)n(C)c(=O)c(C)c32)c1 [Trametinib] (partner 0.02 µM)
Summary of the method: as §1

Cell Line | relative viability (Motesanib + Navitoclax; first compound 0.01 µM) | relative viability (Motesanib + Navitoclax; first compound 0.03162 µM) | relative viability (Motesanib + Navitoclax; first compound 0.1 µM) | relative viability (Motesanib + Navitoclax; first compound 0.3162 µM) | relative viability (Motesanib + Navitoclax; first compound 1 µM) | relative viability (Motesanib + Palbociclib; first compound 0.01 µM) | relative viability (Motesanib + Palbociclib; first compound 0.03162 µM) | relative viability (Motesanib + Palbociclib; first compound 0.1 µM) | relative viability (Motesanib + Palbociclib; first compound 0.3162 µM) | relative viability (Motesanib + Palbociclib; first compound 1 µM) | relative viability (Motesanib + Linsitinib; first compound 0.01 µM) | relative viability (Motesanib + Linsitinib; first compound 0.03162 µM) | relative viability (Motesanib + Linsitinib; first compound 0.1 µM) | relative viability (Motesanib + Linsitinib; first compound 0.3162 µM) | relative viability (Motesanib + Linsitinib; first compound 1 µM) | relative viability (Motesanib + Trametinib; first compound 0.01 µM) | relative viability (Motesanib + Trametinib; first compound 0.03162 µM) | relative viability (Motesanib + Trametinib; first compound 0.1 µM) | relative viability (Motesanib + Trametinib; first compound 0.3162 µM) | relative viability (Motesanib + Trametinib; first compound 1 µM)
201T | 1.2 | 1.21 | 1.21 | 1.19 | 1.2 | 0.34 | 0.343 | 0.358 | 0.371 | 0.373 | 1 | 1.09 | 1.03 | 1.05 | 1.02 | 0.743 | 0.71 | 0.736 | 0.722 | 0.742
A549 | 1.19 | 1.23 | 1.17 | 1.34 | 1.32 |  |  |  |  |  | 0.532 | 0.633 | 0.571 | 0.624 | 0.773 |  |  |  |  | 
A-427 | 1.01 | 0.989 | 1.06 | 1.02 | 1.02 | 0.527 | 0.506 | 0.512 | 0.526 | 0.549 | 1.06 | 1.11 | 1.07 | 1.22 | 1.22 | 0.742 | 0.702 | 0.774 | 0.775 | 0.762
ABC-1 |  |  |  |  |  | 0.633 | 0.541 | 0.7 | 0.938 | 0.763 | 1.01 | 0.891 | 0.752 | 0.587 | 0.774 |  |  |  |  | 
BEN | 0.0507 | 0.0585 | 0.0627 | 0.0938 | 0.0672 | 0.458 | 0.457 | 0.478 | 0.481 | 0.476 | 0.932 | 0.842 | 1.08 | 0.886 | 1.05 | 0.996 | 1.01 | 0.983 | 1.01 | 1.1
Calu-6 | 0.877 | 0.748 | 0.852 | 0.758 | 0.76 |  |  |  |  |  | 0.971 | 0.932 | 0.961 | 0.955 | 1.08 |  |  |  |  | 
ChaGo-K-1 |  | 0.691 | 0.862 | 1.03 | 1.21 | 0.899 | 0.881 | 0.976 | 0.856 | 0.908 |  |  |  |  |  | 0.894 | 0.889 | 0.91 | 0.942 | 0.95
EBC-1 | 0.48 | 0.419 | 0.377 | 0.47 | 0.417 |  |  |  |  |  | 0.829 | 0.941 | 0.978 | 0.959 | 0.937 |  |  |  |  | 
IA-LM | 0.803 | 0.827 | 0.737 | 0.673 | 0.631 |  |  |  |  |  | 0.514 | 0.627 | 0.594 | 0.482 | 0.46 |  |  |  |  | 
LCLC-103H |  |  |  |  |  | 0.505 | 0.469 | 0.525 | 0.555 | 0.513 |  | 1.1 | 1.12 | 1.09 | 1.02 | 0.674 | 0.707 | 0.659 | 0.744 | 0.682
NCI-H358 |  |  |  |  |  | 0.142 | 0.133 | 0.132 | 0.161 | 0.13 | 0.7 | 0.818 | 0.712 | 0.785 | 0.905 | 0.13 | 0.137 | 0.129 | 0.163 | 0.138
NCI-H522 |  |  |  |  |  | 1.15 | 1.01 | 1 | 0.84 | 1.26 |  |  |  |  |  | 0.815 | 0.848 | 0.823 | 0.831 | 0.84
NCI-H596 | 0.962 | 0.893 | 0.9 | 0.879 | 1.1 |  |  |  |  |  | 1.1 | 0.937 | 1.08 | 1.12 | 1.08 | 0.68 | 0.918 | 0.761 | 0.798 | 0.958
NCI-H650 |  |  |  |  |  | 0.32 | 0.3 | 0.356 | 0.319 | 0.341 | 0.779 | 0.833 | 0.936 | 1.02 | 0.795 | 0.916 | 1.07 | 0.946 | 1.02 | 1.06
NCI-H661 |  |  |  |  |  | 0.43 | 0.414 | 0.43 | 0.435 | 0.402 | 0.518 | 0.528 | 0.559 | 0.593 | 0.495 | 0.485 | 0.547 | 0.606 | 0.547 | 0.571
NCI-H1299 | 1.06 | 1.04 | 1.06 | 1.11 | 1.07 |  |  |  |  |  | 0.989 | 0.966 | 1.02 | 0.977 | 1.07 |  |  |  |  | 
NCI-H1563 |  |  |  |  |  |  |  |  |  |  | 1.26 | 1.19 | 1.21 | 1.14 | 1.21 |  |  |  |  | 
NCI-H1648 |  |  |  |  |  | 0.305 |  |  | 0.28 | 0.261 |  |  |  |  |  | 0.433 |  |  | 0.566 | 0.471
NCI-H1650 | 1.19 |  | 1.17 | 1.44 | 1.23 | 0.351 | 0.385 | 0.349 | 0.346 | 0.343 |  |  |  |  |  | 0.684 | 0.531 | 0.636 | 0.547 | 0.623
NCI-H1703 | 1.25 | 1.05 | 0.494 | 0.299 | 0.27 |  |  |  |  |  | 0.814 | 0.656 | 0.497 | 0.306 | 0.162 |  |  |  |  | 
NCI-H2170 | 0.574 | 0.773 | 0.545 | 0.676 | 0.537 | 0.397 | 0.382 | 0.388 | 0.377 | 0.397 |  |  |  |  |  | 0.861 | 0.872 | 0.91 | 0.909 | 0.979
NCI-H2342 |  |  |  |  |  | 0.508 | 0.52 | 0.539 | 0.527 | 0.554 |  |  |  |  |  | 0.933 | 0.715 | 0.907 | 0.77 | 0.959
SW 900 |  |  |  |  |  | 0.489 | 0.53 | 0.56 | 0.614 | 0.564 |  |  |  |  |  | 0.855 | 0.764 | 0.938 | 0.683 | 0.848
